According to article PMC5919610, “Structural basis of product inhibition by arabinose and xylose of the thermostable GH43 β-1,4-xylosidase from Geobacillus thermoleovorans IT-08” (PLoS ONE, 2018):

Molecular target: T1, Xyl (GH43 β-1,4-xylosidase from Geobacillus thermoleovorans IT-08) (Geobacillus thermoleovorans, UniProt Q2I2N4)
T1 construct: complete Xyl (511 residues; 61,533 Da); E. coli BL21 (DE3), plasmid pET-xyl; one molecule per asymmetric unit, probably dimer in solution (PISA)
T1 sequence (Q2I2N4 1-511): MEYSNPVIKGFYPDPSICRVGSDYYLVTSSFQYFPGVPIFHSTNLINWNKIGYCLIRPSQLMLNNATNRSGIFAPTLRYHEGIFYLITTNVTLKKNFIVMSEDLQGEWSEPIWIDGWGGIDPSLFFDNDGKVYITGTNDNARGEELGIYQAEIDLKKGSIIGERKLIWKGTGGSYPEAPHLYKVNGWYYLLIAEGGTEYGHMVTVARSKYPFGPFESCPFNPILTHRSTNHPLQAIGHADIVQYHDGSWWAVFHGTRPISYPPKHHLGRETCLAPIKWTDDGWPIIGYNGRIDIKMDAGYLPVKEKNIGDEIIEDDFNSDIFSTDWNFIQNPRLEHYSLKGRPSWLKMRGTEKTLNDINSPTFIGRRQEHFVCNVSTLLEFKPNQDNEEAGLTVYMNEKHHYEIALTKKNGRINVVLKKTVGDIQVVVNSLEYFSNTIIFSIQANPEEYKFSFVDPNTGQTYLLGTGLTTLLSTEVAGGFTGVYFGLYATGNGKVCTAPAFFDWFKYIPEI
Assay: X-ray crystal structure of soaked crystal
Assay type: binding
Details: 500 mM L-arabinose soak, 10 min, pH 7.0, 283 K; 2.10 Å; active site subsite -1; same site in ternary complex with D-xylose (5Z5I, 1.70 Å)

SMILES: OC[C@@H]1O[C@H](O)[C@H](O)[C@H]1O [L-arabinose]
- X-ray crystal structure of soaked crystal: arabinose was only found in subsite -1
